Experimental data from US8846704B2, “Thiopyrimidine-based compounds and uses thereof” (YM Biosciences Austraila Pty Ltd, priority 2007, dated 2014).
pIC50: −log10 of the molar value.

Tests used:
human JAK3 = target: T1, human JAK3 (Homo sapiens, UniProt P52333); assay: Alphascreen tyrosine kinase enzyme assay, JAK3 kinase domain; type: biochemical; settings: read-out: JAK3 IC50_nM
T1 construct: The kinase domain of human JAK3 was amplified; GST (N); made in house; host or cells: Sf9 insect cells (baculovirus)
T1 sequence (P52333 822-1111 limits assumed): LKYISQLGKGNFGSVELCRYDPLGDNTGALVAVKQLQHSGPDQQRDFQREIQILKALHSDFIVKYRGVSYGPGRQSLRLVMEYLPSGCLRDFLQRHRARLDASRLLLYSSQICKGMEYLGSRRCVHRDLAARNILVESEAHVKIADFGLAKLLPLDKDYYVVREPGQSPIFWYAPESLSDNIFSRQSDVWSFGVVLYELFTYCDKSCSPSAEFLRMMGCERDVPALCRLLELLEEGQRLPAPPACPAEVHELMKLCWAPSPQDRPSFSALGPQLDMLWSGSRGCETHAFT
In short: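 GST-affinity-purified human JAK3 kinase domain (baculovirus/Sf9) was pre-incubated 20 min with compound ([…]) in HEPES pH 7.5 buffer with MgCl2, vanadate and Tween 20. Biotinylated peptide substrate ([…]) and ATP were then added; phosphotyrosine was detected by AlphaScreen PY100 acceptor and streptavidin donor beads after 2–3 h.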

human JAK2 = target: T2, human JAK2 (Homo sapiens, UniProt O60674); assay: Alphascreen tyrosine kinase enzyme assay, JAK2 kinase domain; type: biochemical; settings: read-out: JAK2 IC50_nM
T2 construct: The kinase domain of human JAK2 was amplified; GST (N); made in house; host or cells: Sf9 insect cells (baculovirus)
T2 sequence (O60674 849-1124 limits assumed): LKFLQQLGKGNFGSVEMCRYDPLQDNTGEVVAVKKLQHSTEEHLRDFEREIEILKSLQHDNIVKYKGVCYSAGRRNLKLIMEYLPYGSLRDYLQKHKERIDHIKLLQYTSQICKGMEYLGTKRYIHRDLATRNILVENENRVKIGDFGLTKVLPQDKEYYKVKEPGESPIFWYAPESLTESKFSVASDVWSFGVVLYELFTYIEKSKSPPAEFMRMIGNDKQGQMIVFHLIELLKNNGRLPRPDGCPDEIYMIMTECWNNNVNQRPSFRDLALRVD
In short: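 JAK2 kinase domain expressed in baculovirus/Sf9 and glutathione-affinity purified. Compounds (final […]) pre-incubated 20 min with enzyme in 10 mM HEPES pH 7.5, MgCl2, NaCl, vanadate, 0.1% Tween 20.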

[1] = target: T3, BaF3 TELJAK2 cells (BafT_J2) (Homo sapiens, UniProt O60674); assay: Cellular screening, BaF3 TEL:JAK2 cells, Alamar Blue; type: cell-based; settings: 40 hr, read-out: BafT_J2 IC50_nM
T3 construct: fused on or other part: TEL (ETV6) N-terminal part, coding nucleotides 1-487, serves as the oligomerising partner; It is fused through a Sal I site to the JAK2 kinase domain and expressed from pTRE2 in BaF3 cells bearing pTET-off; P41212 (Transcription factor ETV6)
T3 sequence (O60674 whole entry, change not shown, the tested form may be a part): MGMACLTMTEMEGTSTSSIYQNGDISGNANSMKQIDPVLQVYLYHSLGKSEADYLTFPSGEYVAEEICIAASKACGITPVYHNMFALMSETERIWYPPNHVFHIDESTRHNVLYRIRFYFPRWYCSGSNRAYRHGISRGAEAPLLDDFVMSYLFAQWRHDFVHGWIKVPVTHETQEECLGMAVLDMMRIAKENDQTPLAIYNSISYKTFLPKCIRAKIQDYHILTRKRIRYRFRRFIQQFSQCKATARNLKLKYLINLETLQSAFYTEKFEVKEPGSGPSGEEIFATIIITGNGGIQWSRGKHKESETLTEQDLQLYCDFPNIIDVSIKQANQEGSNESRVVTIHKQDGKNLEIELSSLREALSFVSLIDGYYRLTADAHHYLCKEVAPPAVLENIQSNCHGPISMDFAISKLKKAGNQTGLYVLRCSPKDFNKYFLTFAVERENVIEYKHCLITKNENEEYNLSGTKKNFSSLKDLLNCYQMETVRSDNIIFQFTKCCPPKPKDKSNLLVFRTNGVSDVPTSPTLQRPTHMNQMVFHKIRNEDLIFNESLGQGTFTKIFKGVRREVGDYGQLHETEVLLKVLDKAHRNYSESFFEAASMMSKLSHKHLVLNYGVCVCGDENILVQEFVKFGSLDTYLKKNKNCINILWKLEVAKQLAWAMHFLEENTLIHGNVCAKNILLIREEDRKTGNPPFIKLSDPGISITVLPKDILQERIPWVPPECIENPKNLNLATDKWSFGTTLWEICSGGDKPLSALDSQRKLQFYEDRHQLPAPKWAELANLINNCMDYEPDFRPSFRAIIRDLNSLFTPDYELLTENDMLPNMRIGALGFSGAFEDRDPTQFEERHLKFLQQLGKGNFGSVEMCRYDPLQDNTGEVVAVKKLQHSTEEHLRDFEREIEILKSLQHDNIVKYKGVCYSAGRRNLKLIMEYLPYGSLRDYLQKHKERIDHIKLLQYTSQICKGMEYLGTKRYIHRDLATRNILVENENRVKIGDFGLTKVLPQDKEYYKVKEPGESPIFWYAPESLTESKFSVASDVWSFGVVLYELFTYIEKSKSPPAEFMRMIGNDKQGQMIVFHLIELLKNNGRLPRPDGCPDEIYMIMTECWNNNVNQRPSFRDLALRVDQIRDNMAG
In short: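 Tet-off BaF3 cells carrying a TEL (nt 1-487)–JAK2 kinase-domain fusion, grown factor-independently in DMEM with 10% Tet-approved FBS without WEHI 3B medium. Compounds were diluted to 20 μM in screening plates, and cells (50,000–200,000 cell/mL at 1.1×) were incubated 40 hr at 37 °C, 5% CO2. Alamar Blue was then added for 4-6 hours; read at 544 nm.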

CTLL2 = assay: Cellular screening, CTLL2 cells, Alamar Blue; type: cell-based; settings: Mus musculus, CTLL-2, read-out: CTLL2 IC50_nM
In short: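 CTLL2 cells in late log phase incubated with compound for 40 hr at 37° C, 5% CO2. Viability then read at 544 nm after a further 4-6 hours with Alamar Blue.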

BaF3 wild-type cells = assay: Cellular screening, BaF3 wild-type cells, Alamar Blue; type: cell-based; settings: Mus musculus, 40 hr, read-out: BAF3wt IC50_nM
In short: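 Cells were cultured in DMEM with 10% FCS and 10% WEHI 3B conditioned medium, and suspensions were prepared at 1.1× final (50,000–200,000 cells/mL). Compounds from 20 μM dilution plates were added at 10× final and incubated for 40 hr at 37° C, 5% CO2. Alamar Blue was then added for 4–6 hours and read at 544 nm.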

SMILES	pIC50 (human JAK3)	pIC50 (human JAK2)	GI50 [1] [µM]	pIC50 (CTLL2)	pIC50 (BaF3 wild-type cells)
C=CC(=O)Nc1ccc(Sc2nc(Nc3ccc(N4CCOCC4)cc3)ncc2Cl)cc1 [Compound 315, N-(4-(5-chloro-2-(4-morpholinophenylao)pyrimidin-4-ylthio)phenyl)acrylmide]	> 7.00	< 6.00	> 20	> 6.00	< 4.70
C=CC(=O)Nc1ccc(Sc2ccnc(Nc3ccc(S(=O)(=O)NCCC(C)C)cc3)n2)cc1 [Compound 371, N-(4-(2-(4-(N-isopentylsulfamoyl)phenylao)pyrimidin-4-ylthio)phenyl)acrylamide]	> 7.00	< 6.00	< 20	> 5.30	> 4.70
C=CC(=O)Nc1ccc(Sc2nc(Nc3ccc(N4CCOCC4)cc3)ncc2C)cc1 [Compound 124, N-(4-(5-methyl-2-(4-morpholinophenylao)pyrimidin-4-ylthio)phenyl)acrylamide]	> 7.00	< 6.00	> 20	> 6.00	< 4.70
NC(=O)c1nccn1Cc1ccc(Sc2ccnc(Nc3ccc(N4CCOCC4)cc3)n2)cc1 [Compound 149, 1-(4-(2-(4-morpholinophenylao)pyrimidin-4-ylthio)benzyl)-1H-imidazole-2-carboxamide]	> 6.30	< 6.00	< 5	> 4.70	> 5.30
C=CC(=O)Nc1ccc(Sc2ccnc(Nc3ccc(C#N)cc3)n2)cc1 [Compound 131, N-(4-(2-(4-cyanophenylao)pyrimidin-4-ylthio)phenyl)acrylamide]	> 7.00	< 6.00	< 20	> 4.70	> 5.30
O=C(Nc1ccc(Sc2ccnc(Nc3ccc(N4CCOCC4)cc3)n2)cc1)C1CC1(F)Cl (stereo not drawn) [Compound 378, 2-chloro-2-fluoro-N-(4-(2-(4-morpholinophenylao)pyrimidin-4-ylthio)phenyl)cyclopropanecarboxamide]	> 6.30	< 6.00	< 1	< 4.70	> 6.00
CSc1nc(Nc2ccc(N3CCOCC3)cc2)ncc1C [Compound 176, 5-methyl-4-(methylthio)-N-(4-morpholinophenyl)pyrimidin-2-ae]	> 6.00	> 6.00	< 5	> 5.30	> 5.30
C=CC(=O)Nc1ccc(Sc2nc(Nc3ccc(CNS(C)(=O)=O)cc3)ncc2C)cc1 [Compound 294, N-(4-(5-methyl-2-(4-(methylsulfonamidomethyl)phenylao)pyrimidin-4-ylthio)phenyl)acrylamide]	> 7.00	< 6.00	> 20	> 6.00	< 4.70
C=CC(=O)Nc1ccc(Sc2nc(Nc3ccc4c(c3)OCO4)ncc2C)cc1 [Compound 284, N-(4-(2-(benzo[d][1,3]dioxol-5-ylao)-5-methylpyrimidin-4-ylthio)phenyl)acrylamide]	> 7.00	< 6.00	< 20	> 6.00	> 4.70
C=CC(=O)Nc1ccc(Sc2ccnc(Nc3cccc(S(=O)(=O)N4CCOCC4)c3)n2)cc1 [Compound 372, N-(4-(2-(3-(morpholinosulfonyl)phenylao)pyrimidin-4-ylthio)phenyl)acrylamide]	> 7.00	< 6.00	< 5	> 5.30	> 5.30
C=CC(=O)Nc1ccc(Sc2ccnc(Nc3cccc(C(=O)OC)c3)n2)cc1 [Compound 356, methyl 3-(4-(4-acrylamidophenylthio)pyrimidin-2-ylao)benzoate]	> 7.00	< 6.00	< 20	> 5.30	> 4.70
Cc1cnc(Nc2ccc(N3CCOCC3)cc2)nc1Sc1ccc(NC(=O)/C=C/Cl)cc1 [Compound 343, (E)-3-chloro-N-(4-(5-methyl-2-(4-morpholinophenylao)pyrimidin-4-ylthio)phenyl)acrylamide]	> 7.00	< 6.00	< 20	> 5.30	> 4.70
N#Cc1nccc(Sc2ccc(Sc3ccnc(Nc4ccc(N5CCOCC5)cc4)n3)cc2)n1 [Compound 154, 4-(4-(2-(4-morpholinophenylao)pyrimidin-4-ylthio)phenylthio)pyrimidine-2-carbonitrile]	> 6.30	< 6.00	< 5	> 5.30	> 5.30
C=CC(=O)Nc1ccc(Sc2ccnc(Nc3ccccc3O)n2)cc1 [Compound 279, N-(4-(2-(2-hydroxyphenylao)pyrimidin-4-ylthio)phenyl)acrylamide]	> 7.00	< 6.00	< 20	> 4.70	> 4.70
CCOC(=O)/C=C\C(=O)Nc1ccc(Sc2nc(Nc3ccc(N4CCOCC4)cc3)ncc2C)cc1 [Compound 388, (Z)-ethyl 4-(4-(5-methyl-2-(4-morpholinophenylao)pyrimidin-4-ylthio)phenylao)-4-oxobut-2-enoate]	> 7.00	> 6.30	< 5	> 5.30	> 5.30
CCOC(=O)c1nccn1Cc1ccc(Sc2ccnc(Nc3ccc(N4CCOCC4)cc3)n2)cc1 [Compound 148, ethyl 1-(4-(2-(4-morpholinophenylao)pyrimidin-4-ylthio)benzyl)-1H-imidazole-2-carboxylate]	> 6.30	< 6.00	< 20	> 4.70	> 4.70
COc1ccc(Nc2nccc(Sc3ccc(NC(=O)CC#N)cc3)n2)cc1OC [Compound 101, 2-cyano-N-(4-(2-(3,4-dimethoxyphenylao)pyrimidin-4-ylthio)phenyl)acetamide]	< 6.00	< 6.00	< 5	> 4.70	> 6.00
Cc1cnc(Nc2ccc(N3CCOCC3)cc2)nc1Sc1ccc(NC(=O)/C(Br)=C\C(=O)O)cc1 [Compound 381, (E)-3-bromo-4-(4-(5-methyl-2-(4-morpholinophenylao)pyrimidin-4-ylthio)phenylao)-4-oxobut-2-enoic acid]	> 6.30	< 6.00	> 20	> 4.70	< 4.70
CC#CC(=O)Nc1ccc(Sc2ccnc(Nc3ccc(N4CCOCC4)cc3)n2)cc1 [Compound 104, N-(4-(2-(4-morpholinophenylao)pyrimidin-4-ylthio)phenyl)but-2-ynamide]	> 7.00	< 6.00	> 20	> 5.30	< 4.70
Cc1cnc(Nc2ccc(N3CCOCC3)cc2)nc1Sc1ccc(C#N)cc1 [Compound 136, 4-(5-methyl-2-(4-morpholinophenylao)pyrimidin-4-ylthio)benzonitrile]	> 6.30	< 6.00	> 20	< 4.70	< 4.70
c1cn(Cc2ccc(Sc3ccnc(Nc4ccc(N5CCOCC5)cc4)n3)cc2)cn1 [Compound 127, 4-(4-((1H-imidazol-1-yl)methyl)phenylthio)-N-(4-morpholinophenyl)pyrimidin-2-ae]	> 6.30	> 6.00	< 20	> 4.70	< 4.70
C=CC(=O)Nc1ccc(Sc2nc(Nc3ccc(O)cc3)ncc2C)cc1 [Compound 282, N-(4-(2-(4-hydroxyphenylao)-5-methylpyrimidin-4-ylthio)phenyl)acrylamide]	> 7.00	< 6.00	< 20	> 6.00	> 4.70
Cc1cnc(Nc2ccc(N3CCOCC3)cc2)nc1Sc1ccc(NC(=O)COCC(=O)O)cc1 [Compound 188, 2-(2-(4-(5-methyl-2-(4-morpholinophenylao)pyrimidin-4-ylthio)phenylao)-2-oxoethoxy)acetic acid]	> 7.00	> 6.30	> 20	< 4.70	< 4.70
O=C(CCl)Nc1cccc(Sc2ccnc(Nc3ccc(N4CCOCC4)cc3)n2)c1 [Compound 332, 2-chloro-N-(3-(2-(4-morpholinophenylao)pyrimidin-4-ylthio)phenyl)acetamide]	> 7.00	< 6.00	< 5	> 5.30	> 5.30
